Reference: PMC11270687 (ACS Omega, 2024)

Tested on: PD3
Format: biochemical, Brucella anthropi

## CCCC(=O)Oc1ccc([N+](=O)[O-])cc1 [p-nitrophenyl butyrate]
  Km: 7.82 mM
